Where two headings read alike, the source gives them in different places.
Columns and labels:
[1] = target: 5-HT2B (h) (Homo sapiens, UniProt P41595); test: 5-HT2B (h) (agonist radioligand) binding assay; settings: 1.0E−05M
[2] = target: T1, PR (h) (Homo sapiens, UniProt P06401); test: PR (h) (agonist radioligand) binding assay; settings: 1.0E−05M
T1 construct: T47D cells (cytosol)
T1 sequence (P06401 679-933): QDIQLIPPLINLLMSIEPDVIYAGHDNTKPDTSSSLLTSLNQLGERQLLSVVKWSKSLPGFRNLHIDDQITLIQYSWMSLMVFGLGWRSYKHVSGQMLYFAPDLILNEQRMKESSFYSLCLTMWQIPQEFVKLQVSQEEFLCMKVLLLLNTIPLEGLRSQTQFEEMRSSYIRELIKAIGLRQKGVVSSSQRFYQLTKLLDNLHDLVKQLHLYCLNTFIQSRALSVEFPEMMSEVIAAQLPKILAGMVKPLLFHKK

[3] = target: T2, MT3 (ML2) (Mesocricetus auratus, UniProt A0ABM2YAB8); test: MT3 (ML2) (agonist radioligand) binding assay; settings: MT3 (ML2)(h) (agonist radioligand), 1.0E−05M
T2 sequence (A0ABM2YAB8 1-231): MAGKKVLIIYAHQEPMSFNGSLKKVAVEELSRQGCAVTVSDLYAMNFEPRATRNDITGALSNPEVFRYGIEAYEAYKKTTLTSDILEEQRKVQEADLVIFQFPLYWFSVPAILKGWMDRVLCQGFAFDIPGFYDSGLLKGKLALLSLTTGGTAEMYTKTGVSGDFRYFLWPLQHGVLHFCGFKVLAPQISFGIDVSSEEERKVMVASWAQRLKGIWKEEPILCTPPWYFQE

[4] = target: enzyme and uptake assay panel targets (Table 36) (Homo sapiens, UniProt P43403); test: biochemical; assay type: biochemical; settings: ZAP70 kinase (h); 1.0E−05M
[5] = target: enzyme and uptake assay panel targets (Table 36) (Homo sapiens, UniProt P07948); test: biochemical; assay type: biochemical; settings: Lyn A kinase (h); 1.0E−05M
[6] = target: enzyme and uptake assay panel targets (Table 36) (Homo sapiens, UniProt O00408); test: biochemical; assay type: biochemical; settings: PDE2A1 (h); 1.0E−05M
[7] = target: enzyme and uptake assay panel targets (Table 36) (Homo sapiens, UniProt P08253); test: biochemical; assay type: biochemical; settings: MMP-2 (h); 1.0E−05M
[8] = target: enzyme and uptake assay panel targets (Table 36) (Homo sapiens, UniProt P08473); test: biochemical; assay type: biochemical; settings: Peptidase, Metalloproteinase, Neutral Endopeptidase; 1.0E−05M
[9] = target: enzyme and uptake assay panel targets (Table 36) (Homo sapiens, UniProt P06213); test: biochemical; assay type: biochemical; settings: IRK (h)(InsR); 1.0E−05M
[10] = target: enzyme and uptake assay panel targets (Table 36) (Homo sapiens, UniProt Q13370); test: biochemical; assay type: biochemical; settings: PDE3B (h); 1.0E−05M
[11] = target: enzyme and uptake assay panel targets (Table 36) (Homo sapiens, UniProt P56817); test: biochemical; assay type: biochemical; settings: BACE-1 (h) (β-secretase); 1.0E−05M; flag INTER: Test compound interferes with the assay detection method
[12] = target: enzyme and uptake assay panel targets (Table 36) (Homo sapiens, UniProt P17948); test: biochemical; assay type: biochemical; settings: FLT-1 kinase (h) (VEGFR1); 1.0E−05M
[13] = target: enzyme and uptake assay panel targets (Table 36) (Human immunodeficiency virus type 1 group M subtype B, UniProt P04585); test: biochemical; assay type: biochemical; settings: HIV-1 protease; 1.0E−05M
[14] = target: enzyme and uptake assay panel targets (Table 36) (Homo sapiens, UniProt P03956); test: biochemical; assay type: biochemical; settings: MMP-1 (h); 1.0E−05M; flag INTER: Test compound interferes with the assay detection method
[15] = target: enzyme and uptake assay panel targets (Table 36) (Homo sapiens, UniProt P14780); test: biochemical; assay type: biochemical; settings: MMP-9 (h); 1.0E−05M; flag INTER: Test compound interferes with the assay detection method
[16] = target: enzyme and uptake assay panel targets (Table 36) (Homo sapiens, UniProt Q08499); test: biochemical; assay type: biochemical; settings: PDE4D2 (h); 1.0E−05M
[17] = target: enzyme and uptake assay panel targets (Table 36) (Homo sapiens, UniProt P42574); test: biochemical; assay type: biochemical; settings: caspase-3 (h); 1.0E−05M
[18] = target: enzyme and uptake assay panel targets (Table 36) (Mus musculus, UniProt P29477); test: biochemical; assay type: biochemical; settings: inducible NOS; 1.0E−05M
[19] = target: enzyme and uptake assay panel targets (Table 36) (Homo sapiens, UniProt Q9UQM7); test: biochemical; assay type: biochemical; settings: CaMK2α (h); 1.0E−05M
[20] = read-out: % Inhibition of Control Specific Binding 1st
[21] = read-out: % Inhibition of Control Specific Binding 2nd
[22] = read-out: % Inhibition of Control Specific Binding Mean

enzyme and uptake assay panel targets (Table 36) (Homo sapiens, UniProt P08473), sequence (P08473 whole entry): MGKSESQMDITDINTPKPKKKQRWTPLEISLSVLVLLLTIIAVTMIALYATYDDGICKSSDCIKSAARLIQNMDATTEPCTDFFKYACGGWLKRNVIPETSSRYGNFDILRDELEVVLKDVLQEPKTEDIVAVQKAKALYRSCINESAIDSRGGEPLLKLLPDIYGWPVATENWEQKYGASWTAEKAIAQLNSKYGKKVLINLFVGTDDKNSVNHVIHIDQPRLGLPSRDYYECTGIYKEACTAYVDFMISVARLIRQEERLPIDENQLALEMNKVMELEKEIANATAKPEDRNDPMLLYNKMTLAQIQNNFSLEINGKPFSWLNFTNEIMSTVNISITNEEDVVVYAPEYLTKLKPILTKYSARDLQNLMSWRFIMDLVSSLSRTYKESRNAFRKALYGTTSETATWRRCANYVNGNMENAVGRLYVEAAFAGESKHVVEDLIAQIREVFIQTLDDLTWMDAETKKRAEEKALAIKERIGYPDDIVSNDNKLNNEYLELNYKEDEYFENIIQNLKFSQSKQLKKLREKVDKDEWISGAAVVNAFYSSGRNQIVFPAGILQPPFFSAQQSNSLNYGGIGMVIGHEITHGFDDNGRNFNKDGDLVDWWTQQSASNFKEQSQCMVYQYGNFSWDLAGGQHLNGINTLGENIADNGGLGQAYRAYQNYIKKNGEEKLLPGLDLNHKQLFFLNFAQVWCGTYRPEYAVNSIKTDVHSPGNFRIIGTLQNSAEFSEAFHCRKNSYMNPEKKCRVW
enzyme and uptake assay panel targets (Table 36) (Mus musculus, UniProt P29477), sequence (P29477 whole entry): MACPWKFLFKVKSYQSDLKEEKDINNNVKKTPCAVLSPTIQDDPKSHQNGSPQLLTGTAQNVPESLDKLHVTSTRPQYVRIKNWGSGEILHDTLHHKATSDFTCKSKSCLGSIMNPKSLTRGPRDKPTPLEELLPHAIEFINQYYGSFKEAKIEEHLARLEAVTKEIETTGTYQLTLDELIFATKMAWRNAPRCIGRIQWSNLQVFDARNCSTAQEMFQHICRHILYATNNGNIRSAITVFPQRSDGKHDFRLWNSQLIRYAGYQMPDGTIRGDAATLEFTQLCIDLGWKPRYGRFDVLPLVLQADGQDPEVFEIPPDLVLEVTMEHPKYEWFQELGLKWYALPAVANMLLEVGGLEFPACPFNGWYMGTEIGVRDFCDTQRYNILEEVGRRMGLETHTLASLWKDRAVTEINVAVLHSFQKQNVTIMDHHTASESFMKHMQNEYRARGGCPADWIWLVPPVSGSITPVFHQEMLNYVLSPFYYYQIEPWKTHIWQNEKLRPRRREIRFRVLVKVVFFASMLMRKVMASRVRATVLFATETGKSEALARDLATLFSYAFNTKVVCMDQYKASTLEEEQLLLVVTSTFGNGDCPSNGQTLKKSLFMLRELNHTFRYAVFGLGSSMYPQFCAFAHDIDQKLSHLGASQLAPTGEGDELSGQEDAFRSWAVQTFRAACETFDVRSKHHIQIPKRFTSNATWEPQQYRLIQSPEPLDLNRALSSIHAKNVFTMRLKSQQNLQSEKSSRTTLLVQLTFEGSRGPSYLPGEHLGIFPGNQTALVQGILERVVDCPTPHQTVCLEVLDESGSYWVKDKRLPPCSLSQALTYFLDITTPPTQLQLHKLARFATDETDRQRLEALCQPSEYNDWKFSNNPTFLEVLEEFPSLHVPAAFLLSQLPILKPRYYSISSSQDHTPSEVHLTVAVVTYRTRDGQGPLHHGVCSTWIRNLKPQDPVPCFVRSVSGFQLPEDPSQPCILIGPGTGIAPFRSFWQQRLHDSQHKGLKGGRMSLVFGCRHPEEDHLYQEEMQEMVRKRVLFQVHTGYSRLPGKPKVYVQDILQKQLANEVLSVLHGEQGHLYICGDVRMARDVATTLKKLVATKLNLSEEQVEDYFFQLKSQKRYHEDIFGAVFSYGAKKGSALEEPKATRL
enzyme and uptake assay panel targets (Table 36) (Homo sapiens, UniProt P56817), sequence (P56817 46-501): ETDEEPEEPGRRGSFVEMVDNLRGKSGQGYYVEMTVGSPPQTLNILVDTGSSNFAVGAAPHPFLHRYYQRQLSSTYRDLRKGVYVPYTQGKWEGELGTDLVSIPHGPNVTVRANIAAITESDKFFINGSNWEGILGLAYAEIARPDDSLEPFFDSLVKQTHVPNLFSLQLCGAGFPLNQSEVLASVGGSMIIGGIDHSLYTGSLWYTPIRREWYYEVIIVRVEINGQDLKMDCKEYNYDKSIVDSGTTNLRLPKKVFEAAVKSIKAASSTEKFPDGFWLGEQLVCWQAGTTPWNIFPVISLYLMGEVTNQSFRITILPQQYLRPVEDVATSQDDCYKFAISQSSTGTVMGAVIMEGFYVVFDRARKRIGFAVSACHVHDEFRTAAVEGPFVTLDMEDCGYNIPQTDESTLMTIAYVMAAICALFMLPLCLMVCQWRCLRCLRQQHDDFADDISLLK
enzyme and uptake assay panel targets (Table 36) (Homo sapiens, UniProt P03956), sequence (P03956 100-469): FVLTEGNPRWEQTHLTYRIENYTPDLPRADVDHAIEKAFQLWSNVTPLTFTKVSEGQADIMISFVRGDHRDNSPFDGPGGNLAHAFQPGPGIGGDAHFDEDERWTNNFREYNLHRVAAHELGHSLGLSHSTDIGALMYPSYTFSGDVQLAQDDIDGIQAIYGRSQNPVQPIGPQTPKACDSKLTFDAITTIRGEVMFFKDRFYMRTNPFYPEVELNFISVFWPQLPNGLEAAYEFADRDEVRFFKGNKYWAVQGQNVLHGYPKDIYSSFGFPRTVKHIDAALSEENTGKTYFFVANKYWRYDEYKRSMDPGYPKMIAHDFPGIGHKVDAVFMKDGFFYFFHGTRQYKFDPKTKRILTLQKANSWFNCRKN
enzyme and uptake assay panel targets (Table 36) (Homo sapiens, UniProt Q13370), sequence (Q13370 whole entry): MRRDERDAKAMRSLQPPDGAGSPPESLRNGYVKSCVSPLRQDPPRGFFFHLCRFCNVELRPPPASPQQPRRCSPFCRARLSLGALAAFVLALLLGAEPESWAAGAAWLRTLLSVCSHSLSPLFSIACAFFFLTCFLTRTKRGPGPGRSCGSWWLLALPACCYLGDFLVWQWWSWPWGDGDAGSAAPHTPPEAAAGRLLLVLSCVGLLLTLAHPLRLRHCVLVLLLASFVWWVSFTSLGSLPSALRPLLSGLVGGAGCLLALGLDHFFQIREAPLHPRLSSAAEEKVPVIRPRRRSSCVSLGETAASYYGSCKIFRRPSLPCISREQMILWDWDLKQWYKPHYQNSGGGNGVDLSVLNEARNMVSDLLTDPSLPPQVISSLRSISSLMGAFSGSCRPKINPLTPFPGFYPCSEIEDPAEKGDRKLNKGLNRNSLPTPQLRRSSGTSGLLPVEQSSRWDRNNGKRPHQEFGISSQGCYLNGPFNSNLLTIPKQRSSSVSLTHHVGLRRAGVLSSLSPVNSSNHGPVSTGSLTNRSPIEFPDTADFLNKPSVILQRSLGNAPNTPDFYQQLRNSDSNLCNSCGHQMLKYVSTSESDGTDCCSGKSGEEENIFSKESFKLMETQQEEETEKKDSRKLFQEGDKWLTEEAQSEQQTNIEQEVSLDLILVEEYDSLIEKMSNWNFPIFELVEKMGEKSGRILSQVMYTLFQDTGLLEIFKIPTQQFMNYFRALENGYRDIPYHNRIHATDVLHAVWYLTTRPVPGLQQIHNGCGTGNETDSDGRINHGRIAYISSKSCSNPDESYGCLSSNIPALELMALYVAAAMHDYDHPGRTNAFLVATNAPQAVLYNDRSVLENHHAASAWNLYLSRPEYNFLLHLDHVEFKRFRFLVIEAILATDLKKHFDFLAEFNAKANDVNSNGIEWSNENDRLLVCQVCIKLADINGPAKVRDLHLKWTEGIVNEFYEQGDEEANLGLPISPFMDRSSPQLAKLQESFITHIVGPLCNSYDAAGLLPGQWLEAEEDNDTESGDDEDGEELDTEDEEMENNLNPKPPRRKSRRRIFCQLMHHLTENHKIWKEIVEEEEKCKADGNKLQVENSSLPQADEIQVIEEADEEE
enzyme and uptake assay panel targets (Table 36) (Homo sapiens, UniProt P08253), sequence (P08253 110-660): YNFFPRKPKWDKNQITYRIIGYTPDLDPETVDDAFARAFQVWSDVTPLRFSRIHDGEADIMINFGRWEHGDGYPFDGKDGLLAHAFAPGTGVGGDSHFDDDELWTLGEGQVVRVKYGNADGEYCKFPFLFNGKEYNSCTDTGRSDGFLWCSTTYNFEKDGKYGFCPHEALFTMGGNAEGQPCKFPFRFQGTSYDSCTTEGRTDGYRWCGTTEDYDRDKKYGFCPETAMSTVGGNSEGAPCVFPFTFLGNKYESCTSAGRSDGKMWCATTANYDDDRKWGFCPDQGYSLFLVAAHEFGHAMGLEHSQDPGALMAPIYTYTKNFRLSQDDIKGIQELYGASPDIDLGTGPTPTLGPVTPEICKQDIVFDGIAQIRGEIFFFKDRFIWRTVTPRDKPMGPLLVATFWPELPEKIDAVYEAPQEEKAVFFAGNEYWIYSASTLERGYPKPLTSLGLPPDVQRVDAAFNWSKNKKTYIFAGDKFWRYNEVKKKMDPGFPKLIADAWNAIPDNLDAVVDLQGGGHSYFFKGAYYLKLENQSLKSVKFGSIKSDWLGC
5-HT2B (h), sequence (P41595 whole entry): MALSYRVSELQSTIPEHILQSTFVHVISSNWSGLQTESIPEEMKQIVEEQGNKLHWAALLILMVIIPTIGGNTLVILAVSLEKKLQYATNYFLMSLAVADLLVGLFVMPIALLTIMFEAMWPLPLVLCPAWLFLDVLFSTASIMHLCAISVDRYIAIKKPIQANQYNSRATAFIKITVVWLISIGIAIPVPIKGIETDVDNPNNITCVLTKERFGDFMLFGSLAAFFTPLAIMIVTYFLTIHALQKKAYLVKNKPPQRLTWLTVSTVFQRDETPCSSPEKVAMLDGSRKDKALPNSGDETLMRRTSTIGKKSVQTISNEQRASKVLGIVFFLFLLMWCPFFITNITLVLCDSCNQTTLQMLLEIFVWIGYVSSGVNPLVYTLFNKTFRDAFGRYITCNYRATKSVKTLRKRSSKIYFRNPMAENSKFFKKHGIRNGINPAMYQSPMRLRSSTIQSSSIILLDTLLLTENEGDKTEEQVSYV

## [2H]C([2H])([2H])C(O)(c1nc2ccc(Cl)cc2cc1N)C([2H])([2H])[2H] [Compound I-1]
[1]; [20]
  inhibition at 10 µM: 60.8%
[1]; [21]
  inhibition at 10 µM: 64.2%
[1]; [22]
  inhibition at 10 µM: 62.5%
[2]; [20]
  inhibition at 10 µM: 58.7%
[2]; [21]
  inhibition at 10 µM: 63.1%
[2]; [22]
  inhibition at 10 µM: 60.9%
[3]; [20]
  inhibition at 10 µM: 69%
[3]; [21]
  inhibition at 10 µM: 73.3%
[3]; [22]
  inhibition at 10 µM: 71.1%
[4]
  % inhibition of Control Values 1st: 0.4%
  % inhibition of Control Values 2nd: 1.5%
  % inhibition of Control Values Mean: 1.0%
[5]
  % inhibition of Control Values 1st: −17.7%
  % inhibition of Control Values 2nd: −35.7%
  % inhibition of Control Values Mean: −26.7%
[6]
  % inhibition of Control Values 1st: 17.1%
  % inhibition of Control Values 2nd: −24.5%
  % inhibition of Control Values Mean: −3.7%
[7]
  % inhibition of Control Values 1st: 4.9%
  % inhibition of Control Values 2nd: −2.4%
  % inhibition of Control Values Mean: 1.3%
[8]
  % inhibition of Control Values 1st: 0.3%
  % inhibition of Control Values 2nd: 3.0%
  % inhibition of Control Values Mean: 1.7%
[9]
  % inhibition of Control Values 1st: −15.1%
  % inhibition of Control Values 2nd: −7.9%
  % inhibition of Control Values Mean: −11.5%
[10]
  % inhibition of Control Values 1st: 0.9%
  % inhibition of Control Values 2nd: −4.5%
  % inhibition of Control Values Mean: −1.8%
[11]
  % inhibition of Control Values 1st: −4.1%
  % inhibition of Control Values 2nd: −5.7%
  % inhibition of Control Values Mean: −4.9%
[12]
  % inhibition of Control Values 1st: −15.5%
  % inhibition of Control Values 2nd: −18.8%
  % inhibition of Control Values Mean: −17.2%
[13]
  % inhibition of Control Values 1st: 16.6%
  % inhibition of Control Values 2nd: 4.8%
  % inhibition of Control Values Mean: 10.7%
[14]
  % inhibition of Control Values 1st: 45.3%
  % inhibition of Control Values 2nd: 10.7%
  % inhibition of Control Values Mean: 28.0%
[15]
  % inhibition of Control Values 1st: 4.5%
  % inhibition of Control Values 2nd: 4.4%
  % inhibition of Control Values Mean: 4.4%
[16]
  % inhibition of Control Values 1st: 15.9%
  % inhibition of Control Values 2nd: 16.9%
  % inhibition of Control Values Mean: 16.4%
[17]
  % inhibition of Control Values 1st: −2.0%
  % inhibition of Control Values 2nd: 2.5%
  % inhibition of Control Values Mean: 0.2%
[18]
  % inhibition of Control Values 1st: 2.8%
  % inhibition of Control Values 2nd: −2.0%
  % inhibition of Control Values Mean: 0.4%
[19]
  % inhibition of Control Values 1st: 0.2%
  % inhibition of Control Values 2nd: −6.5%
  % inhibition of Control Values Mean: −3.1%

Source: patent US12240816B2, “Deuterated compounds and uses thereof” (Aldeyra Therapeutics, Inc., priority 2015, dated 2025)
